Series [1] has as its system MPO. As to the kind of experiment: MPO-catalyzed HOCl production (taurine/TMB assay). Type of series: biochemical. The following applies: for MPO-catalyzed HOCl production, dose-dependent effects: increasing concentrations. As to the method:
(§1) MPO-mediated HOCl Production. MPO (20 nM) was incubated with H2O2 (50 µM), NaCl (150 mM), taurine (5 mM) and increasing concentrations of KYC in phosphate buffer (100 mM, pH 7.4) which also contained diethylene triamine pentaacetic acid (DTPA, 100 µM) to prevent non-specific, divalent metal cation oxidation for 30 min. Reactions were halted by addition of catalase. Chlorotaurine was quantified using the 3,3-,5,5-tetramethylbenzidine (TMB) assay. Briefly, 400 µL of reaction solution was mixed with 100 µL of 2 mM TMB, 100 µM NaI containing 10% dimethylformamide (DMF) in 400 mM acetate buffer (pH 5.4). After 5 min, absorbance (650 nm) was recorded on a UV/Vis spectrophotometer (Agilent Model 8453).
(§2) MPO-catalyzed HOCl Production: MPO (20 nM) was incubated with H2O2 (50 µM), NaCl (150 mM), taurine (5 mM) and increasing concentrations of KYC in a phosphate buffer (100 mM, pH 7.4) containing diethylene triamine pentaacetic acid (DTPA, 100 µM) to prevent non-specific, divalent metal cation oxidation for 30 min. Reactions were halted by addition of catalase (2,000 units/mL). Chlorotaurine was quantified using the TMB assay (66). Briefly, 400 µL of reaction solution was mixed with 100 µL of 2 mM TMB, 100 µM NaI containing 10% dimethylformamide (DMF) in 400 mM acetate buffer (pH 5.4). After 5 min, absorbance (650 nm) was recorded on a UV/Vis spectrophotometer (Agilent Model 8453).

Series [2] has as its target T1, MPO (Homo sapiens, UniProt P05164).
T1 construct: purchased Lee Biosolutions (St. Louis, MO)
T1 sequence (P05164 49-745): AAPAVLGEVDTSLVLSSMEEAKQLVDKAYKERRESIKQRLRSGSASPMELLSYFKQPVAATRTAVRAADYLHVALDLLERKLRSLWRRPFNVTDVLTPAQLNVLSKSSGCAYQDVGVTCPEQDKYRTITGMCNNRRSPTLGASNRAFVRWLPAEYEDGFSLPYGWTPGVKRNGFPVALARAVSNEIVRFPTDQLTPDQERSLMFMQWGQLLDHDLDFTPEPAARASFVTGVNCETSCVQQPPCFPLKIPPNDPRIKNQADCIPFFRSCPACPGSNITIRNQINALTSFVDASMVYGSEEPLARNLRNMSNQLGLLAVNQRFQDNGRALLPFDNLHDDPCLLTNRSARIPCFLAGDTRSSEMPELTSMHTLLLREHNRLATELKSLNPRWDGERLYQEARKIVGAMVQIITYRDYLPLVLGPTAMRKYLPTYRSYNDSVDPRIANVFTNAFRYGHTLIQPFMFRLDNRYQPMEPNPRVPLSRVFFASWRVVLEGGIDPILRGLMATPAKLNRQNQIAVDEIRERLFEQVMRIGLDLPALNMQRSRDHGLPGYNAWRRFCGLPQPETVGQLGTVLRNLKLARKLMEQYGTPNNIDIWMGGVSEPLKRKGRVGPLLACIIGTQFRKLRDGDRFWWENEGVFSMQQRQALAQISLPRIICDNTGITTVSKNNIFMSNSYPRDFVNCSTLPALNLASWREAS
In words: MPO-mediated LDL oxidation (conjugated diene formation, absorbance at 234 nm). The conditions noted are these: 25 µM; for MPO/H2O2/nitrite-mediated LDL oxidation: H2O2 100 µM, NaNO2 100 µM, MPO 20 nM; for MPO/H2O2-mediated LDL oxidation: in the absence of nitrite. Type of series: biochemical. As to the method:
(§3) MPO-mediated oxidation of LDL. Reaction mixtures contained LDL (0.15 mg/ml), NaNO2 (100 µM), H2O2 (300 µM), MPO (20 nM) and various concentrations of KYC in a potassium phosphate buffer (100 mM, pH 7.4) containing DTPA (100 µM). LDL oxidation was monitored at 234 nm at room temperature on a HP UV/VIS spectrometer. Absorbance traces represent the average of duplicate experiments.
(§4) MPO-mediated LDL Oxidation. Reaction mixtures contained LDL (0.15 mg/mL), NaNO2 (100 µM), H2O2 (100 µM), MPO (20 nM) and increasing concentrations of KYC in a phosphate buffer (100 mM, pH 7.4) containing DTPA (100 µM). Rates of LDL oxidation were monitored at room temperature at 234 nm, the wavelength maximum for conjugated dienes.
(§5) MPO-mediated LDL Conjugated Diene Formation: Reaction mixtures contained LDL (0.15 mg/mL), NaNO2 (100 µM), H2O2 (100 µM), MPO (20 nM) and increasing concentrations of KYC or equimolar concentrations of various compounds in a phosphate buffer (100 mM, pH 7.4) containing DTPA (100 µM). Rates of LDL conjugated diene formation were determined by following changes in absorbance at 234 nm, the wavelength maximum for conjugated dienes, on a UV-Vis spectrophotometer (Agilent Model 8453) at room temperature.

A further series concerns SS/Mcw rat hearts. As to the kind of experiment: Ischemia/reperfusion injury in isolated perfused hearts (Langendorff). From the text: Ischemia/Reperfusion (I/R) Injury in Isolated Hearts. Rats used in this study received humane care in compliance with the Guide for the Care and Use of Laboratory Animals, by the National Research Council. Rats were maintained on a low salt (0.4% NaCl) diet with unlimited access to water. Environmental influences were minimized by maintaining rats in identical housing conditions. Dahl S (SS/Mcw male rats at 8 weeks of age were used for this study.
Modified Krebs-Henseleit bicarbonate buffer was prepared containing the following components (in mM): 118.5 NaCl, 25.0 NaHCO3, 4.8 KCl, 1.2 MgSO4·6H2O, and 1.2 KH2PO4 (pH 7.4 when gassed with 95% O2-5% CO2) in which the calcium content was 1.8. Glucose (11.1 mM) was added to the perfusate. Before use, all perfusion fluids were filtered through cellulose acetate membranes with a pore size of 5 µm. To this perfusate, drugs (KAA, KYC) were added as needed. Animals were weighed, and heparin was administered intraperitoneally based on weight (150 IU/kg). Anesthesia was induced with pentobarbital sodium (30 mg/kg ip). Once adequate anesthesia was obtained, the abdomen was opened, and the diaphragm was separated from its chest wall attachments and the pericardium opened. The aorta was clamped and the heart excised. The heart was then immediately transferred to the Langendorff apparatus, and the aorta was cannulated and secured using silk ties. Coronary arteries were perfused at constant pressure (80 mmHg) in a retrograde fashion with Krebs buffer. The heart was immersed in a bath containing Krebs buffer at 37.2 +/- 0.1°C to maintain conditions of normothermia. Left ventricular pressure (LVP) was measured isovolumetrically with a transducer connected to a thin, saline-filled latex balloon inserted into the left ventricle through the mitral valve from an incision in the left atrium.
Drug perfusion. After steady-state levels of function were reached, hearts were perfused with HZ2 (Ac-KYC-NH2) or HZ3 (Ac-KWC-NH2) at 50mg/L for 40 min prior to 35 min global ischemia and 2 hour reperfusion. The protocol for perfusing isolated hearts with or without KWC or scramble peptide KAA is described in Fig. 5A.

Series [3] is described as follows: Thiol reduction of KYC disulfide (HPLC). Type of series: physicochemical. From the text:
To confirm that KYC oxidation by MPO yields a simple disulfide, we reduced the product using simple thiols such as glutathione (GSH) and dithiothreitol (DTT).

The next series concerns NADPH oxidase (NOX). As to the kind of experiment: PMA-stimulated HL-60 cell superoxide formation (SOD-inhibitable cytochrome C reduction). The conditions noted are these: cytochrome C assay. The format is cell-based, human. As to the method:
PMA-induced Superoxide Anion Formation. HL-60 cells were cultured in RPMI 1640 medium containing 10 % FCS (passage 20-50). HL-60 cells were harvested by centrifugation (1000 rpm, 10 min), washed 2X with phosphate buffer (10 mM, pH 7.4) with NaCl (138 mM), KCl (2.67 mM), CaCl2 (0.901 mM), MgCl2 (0.493 mM) and glucose (1mg/ml) to remove culture medium. The HL-60 cells (6 x10^6/0.5ml) were re-suspended in DPBS. After stimulation with PMA (10 µM), the HL-60 cells were incubated with cytochrome C (40 µM) with or without superoxide dismutase at 37°C for 30 min. The reaction was stopped by centrifugation. Cytochrome C reduction was measured at 550 nm on a UV-Vis spectrophotometer (Agilent, Model 8453).
PMA-stimulated HL-60 cell O2^•- Formation: HL-60 cells were harvested by centrifugation (1000 rpm, 10 min), washed twice with DPBS with glucose to remove culture medium. The HL-60 cells (1.2 x10^7/ml) were re-suspended in DPBS with glucose. After stimulation with PMA (10 µM), the HL-60 cells were incubated with cytochrome C (40 µM) with or without superoxide dismutase (500 units/mL) at 37 °C for 10 min and then the HL-60 cells were removed by centrifugation. Cytochrome C reduction in supernatants was measured at 550 nm using a UV-Vis spectrophotometer (Agilent, Model 8453).

Series [4] deals with T1, MPO. As to the kind of experiment: MPO-catalyzed HOCl production (taurine/TMB assay). The format is biochemical. The following applies: 12.5 µM. Here is the method:
as §1, §2

Another series concerns hypertensive rats. The conditions noted are these: large doses; cited from earlier work.
For series [5], the system named is MPO. In words: MPO-mediated LDL oxidation (conjugated diene formation, absorbance at 234 nm). The format is biochemical. The following applies: 25 µM; H2O2 100 µM, NaNO2 100 µM, MPO 20 nM. Here is the method:
as §3, §4, §5

“Also recorded” adds a separate entry of the source. Positions of bridges follow the written chain, without caps; N, C: chain ends. Non-standard residues stand in square brackets, D forms with d. Residues, ends and D or L forms follow the SMILES beside them. Chains are numbered I, II in the order given.

With `CC(=O)N[C@H](CCCCN)C(=O)N[C@H](Cc1ccc(O)cc1)C(=O)N[C@H](CS)C(N)=O` [Ac-(d)K(d)Y(d)C-amide] (Ac-[dK]-[dY]-[dC]-NH2), the “MPO-catalyzed HOCl production, comparison at equimolar concentration” value in the series with MPO [1] (12.5 µM) is recorded as “less effective than KYC”.
As to `N[C@@H](CCC(=O)N[C@@H](CS)C(=O)NCC(=O)O)C(=O)O` [GSH, glutathione], on MPO [2], the “MPO/H2O2/nitrite-mediated LDL oxidation” value was “ineffective for inhibiting LDL oxidation” and the “MPO/H2O2-mediated LDL oxidation” value is given as “inhibited LDL oxidation; also recorded: did not increase LDL oxidation”.
Consider `CC(=O)N[C@@H](CCCCN)C(=O)N[C@@H](Cc1c[nH]c2ccccc12)C(=O)N[C@@H](CS)C(N)=O` [KWC, Ac-KWC-amide] (Ac-Lys-Trp-Cys-NH2), for which, in the series on SS/Mcw rat hearts (perfusion 40 min prior to 35 min global ischemia and 2 hour reperfusion, untreated 37.1±4.3), the “percent recovery of LVDP after I/R injury” value is 55.3±4.1%. The “left ventricular developed pressure (LVDP) after I/R injury” value in the series with SS/Mcw rat hearts (perfusion 40 min prior to 35 min global ischemia and 2 hour reperfusion, untreated 38±3.9) turned out to be 57.3±4.8 mmHg. In the series with SS/Mcw rat hearts (prior to ischemia), the “increase of coronary flow rates after perfusion into the hearts” value is given as “more than 20%”. Moreover, the “percent recovery of coronary flow rates after I/R” value in the series on SS/Mcw rat hearts (untreated control 49.6±3.4, p<0.05) stood at 65.2±4%.
Turning to `CC(=O)N[C@@H](CCCCN)C(=O)N[C@@H](Cc1ccc(O)cc1)C(=O)N[C@@H](CSSC[C@H](NC(=O)[C@H](Cc1ccc(O)cc1)NC(=O)[C@H](CCCCN)NC(C)=O)C(N)=O)C(N)=O` [KYC disulfide] (I: Ac-Lys-Tyr-Cys-NH2 / II: Ac-Lys-Tyr-Cys-NH2; disulfide I:3-II:3), the “reduction to KYC monomer by GSH” value in series [3] (10 mM GSH, 120 min) is on record as “completely reduced”. Besides, in series [3] (DTT 0.5 mM, room temperature), the “time to complete reduction to KYC monomer by DTT” value is reported as no more than 5 min. Also, the “O2•- production in PMA-stimulated HL-60 cells” value in the series with NADPH oxidase (NOX) is “neither KYC nor KYC disulfide have any significant effect; also recorded: Neither KYC nor KYC disulfide had any significant effect”.
As for `N[C@@H](Cc1c[nH]c2ccccc12)C(=O)O` [Trp, tryptophan], at MPO [2], the “MPO/H2O2/nitrite-mediated LDL oxidation” value is “did not inhibit but actually enhanced LDL oxidation” and the “MPO/H2O2-mediated LDL oxidation” value was “increased MPO-mediated LDL oxidation”. In addition, on MPO [4], the “MPO-catalyzed HOCl production, comparison at equimolar concentration” value was “effective inhibitor”.
Consider `N[C@@H](Cc1ccc(O)cc1)C(=O)O` [Tyr, tyrosine], for which, at MPO [2], the “MPO/H2O2/nitrite-mediated LDL oxidation” value is “accelerated and enhanced LDL oxidation”; the “MPO/H2O2-mediated LDL oxidation” value is “increased MPO-mediated LDL oxidation”. Moreover, the “MPO-catalyzed HOCl production, comparison at equimolar concentration” value on MPO [4] was “little, if any effect”. The “MPO-catalyzed HOCl production, comparison at equimolar concentration” value at MPO [4] (listed as Tyrosine) is recorded as “little if any effect”.
In the case of `COc1ccc2[nH]cc(CCNC(C)=O)c2c1` [melatonin], in the series with hypertensive rats, the “number of apoptotic cells in the vessel wall” value is on record as “increased the number of apoptotic cells in the vessel wall”.
On to “N-acetyl Lysylphenylalanylcysteine amid [KFC]”, for which the “MPO/H2O2/nitrite-mediated LDL oxidation” value with MPO [5] is “increased the lag phase and delayed, but did not totally inhibit LDL oxidation”. In addition, in the series with MPO [1] (25 µM), the “reduction of HOCl detected by the taurine/TMB assay” value was 35%. In addition, the “MPO-catalyzed HOCl production, dose-dependent effects” value in the series with MPO [1] is listed as “weaker inhibitor of HOCl formation”.
Regarding “N-acetyl Lysyltyrosylcyeteine amide [KYS]”, the “MPO/H2O2/nitrite-mediated LDL oxidation” value with MPO [5] is listed as “accelerated LDL oxidation”. Besides, in the series on MPO [1], the “MPO-catalyzed HOCl production, dose-dependent effects” value is reported as “failed to inhibit; also recorded: not an inhibitor”.

The record behind these values is patent EP2873675A1, “Peptide-based peroxidase inhibitors and methods of using same” (The Medical College of Wisconsin, Inc., priority 2013, dated 2015).
